What was measured:
Homo sapiens [1] = organism: Homo sapiens; further: assay method not described here
[2] = biological target: Coronin-1A (Homo sapiens) (UniProt P31146); further: assay method not described here
[3] = biological target: AP-1 complex subunit gamma-1 (Homo sapiens) (UniProt O43747); further: assay method not described here
[4] = biological target: Sodium/potassium-transporting ATPase subunit beta-1 (Homo sapiens) (UniProt P05026); further: assay method not described here
[5] = biological target: Double-stranded RNA-specific adenosine deaminase (Homo sapiens) (UniProt P55265); further: assay method not described here
[6] = biological target: Endoplasmin (Homo sapiens) (UniProt P14625); further: assay method not described here
Endoplasmin (Homo sapiens), sequence (P14625 whole entry): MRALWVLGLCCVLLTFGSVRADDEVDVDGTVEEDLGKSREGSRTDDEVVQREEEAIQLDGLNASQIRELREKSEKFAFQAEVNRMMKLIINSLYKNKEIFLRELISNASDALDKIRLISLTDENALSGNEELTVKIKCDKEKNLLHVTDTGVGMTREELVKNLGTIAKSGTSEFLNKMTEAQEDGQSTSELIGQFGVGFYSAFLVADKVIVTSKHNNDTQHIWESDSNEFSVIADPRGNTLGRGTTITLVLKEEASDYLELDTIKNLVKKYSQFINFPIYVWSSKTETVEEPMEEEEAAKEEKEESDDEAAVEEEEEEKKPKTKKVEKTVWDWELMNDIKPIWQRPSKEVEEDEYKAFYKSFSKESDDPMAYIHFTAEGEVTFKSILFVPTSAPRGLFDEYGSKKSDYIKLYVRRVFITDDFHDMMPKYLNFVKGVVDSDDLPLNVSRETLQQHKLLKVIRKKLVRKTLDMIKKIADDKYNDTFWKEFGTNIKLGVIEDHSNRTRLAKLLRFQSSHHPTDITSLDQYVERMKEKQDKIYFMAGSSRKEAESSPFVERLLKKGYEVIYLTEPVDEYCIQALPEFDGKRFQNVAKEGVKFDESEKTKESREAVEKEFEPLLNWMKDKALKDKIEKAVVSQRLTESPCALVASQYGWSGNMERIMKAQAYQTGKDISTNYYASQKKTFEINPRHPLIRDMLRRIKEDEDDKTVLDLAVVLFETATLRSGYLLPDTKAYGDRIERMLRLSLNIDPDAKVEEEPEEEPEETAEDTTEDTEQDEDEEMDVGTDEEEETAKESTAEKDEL

[7] = biological target: Trifunctional enzyme subunit alpha, mitochondrial (Homo sapiens) (UniProt P40939); further: assay method not described here
[8] = biological target: Ras GTPase-activating-like protein IQGAP1 (Homo sapiens) (UniProt P46940); further: assay method not described here
[9] = biological target: DnaJ homolog subfamily A member 3, mitochondrial (Homo sapiens) (UniProt Q96EY1); further: assay method not described here
[10] = biological target: Endoplasmic reticulum junction formation protein lunapark (Homo sapiens) (UniProt Q9C0E8); further: assay method not described here
[11] = biological target: Hsp90 co-chaperone Cdc37 (Homo sapiens) (UniProt Q16543); further: assay method not described here
[12] = biological target: Mitogen-activated protein kinase kinase kinase 5 (Homo sapiens) (UniProt Q99683); further: assay method not described here
[13] = biological target: LIM and SH3 domain protein 1 (Homo sapiens) (UniProt Q14847); further: assay method not described here
[14] = biological target: Dihydrolipoyllysine-residue acetyltransferase component of pyruvate dehydrogenase complex, mitochondrial (Homo sapiens) (UniProt P10515); further: assay method not described here
[15] = biological target: WD repeat-containing protein 1 (Homo sapiens) (UniProt O75083); further: assay method not described here
[16] = biological target: Bone morphogenetic protein receptor type-2 (Homo sapiens) (UniProt Q13873); further: assay method not described here
Bone morphogenetic protein receptor type-2 (Homo sapiens), sequence (Q13873 whole entry): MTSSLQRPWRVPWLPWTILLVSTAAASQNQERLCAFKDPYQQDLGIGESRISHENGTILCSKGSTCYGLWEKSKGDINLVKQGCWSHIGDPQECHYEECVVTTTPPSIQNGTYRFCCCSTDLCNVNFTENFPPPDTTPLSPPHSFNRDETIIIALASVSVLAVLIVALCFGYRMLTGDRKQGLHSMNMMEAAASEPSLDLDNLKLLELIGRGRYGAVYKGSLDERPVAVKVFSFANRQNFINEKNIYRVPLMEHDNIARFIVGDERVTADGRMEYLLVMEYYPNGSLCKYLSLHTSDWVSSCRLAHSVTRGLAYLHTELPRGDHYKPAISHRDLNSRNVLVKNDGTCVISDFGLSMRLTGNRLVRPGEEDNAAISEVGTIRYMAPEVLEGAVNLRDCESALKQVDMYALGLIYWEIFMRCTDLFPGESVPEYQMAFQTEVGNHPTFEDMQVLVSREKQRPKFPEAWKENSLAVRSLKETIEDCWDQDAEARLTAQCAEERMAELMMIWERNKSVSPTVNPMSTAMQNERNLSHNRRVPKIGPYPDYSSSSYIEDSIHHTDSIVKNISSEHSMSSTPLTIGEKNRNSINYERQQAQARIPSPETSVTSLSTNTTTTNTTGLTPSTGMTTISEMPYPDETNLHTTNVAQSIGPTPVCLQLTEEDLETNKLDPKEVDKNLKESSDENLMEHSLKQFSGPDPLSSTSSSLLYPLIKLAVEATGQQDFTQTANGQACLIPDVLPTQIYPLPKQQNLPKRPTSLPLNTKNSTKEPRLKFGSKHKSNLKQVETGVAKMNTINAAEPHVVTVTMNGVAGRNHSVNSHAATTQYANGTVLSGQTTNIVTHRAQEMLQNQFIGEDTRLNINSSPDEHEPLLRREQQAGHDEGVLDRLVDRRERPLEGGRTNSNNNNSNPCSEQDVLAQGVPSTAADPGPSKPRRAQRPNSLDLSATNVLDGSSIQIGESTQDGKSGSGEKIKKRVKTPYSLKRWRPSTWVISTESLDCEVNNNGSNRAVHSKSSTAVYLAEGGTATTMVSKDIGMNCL

[17] = biological target: Heterogeneous nuclear ribonucleoprotein U (Homo sapiens) (UniProt Q00839); further: assay method not described here
[18] = biological target: Heterogeneous nuclear ribonucleoprotein L (Homo sapiens) (UniProt P14866); further: assay method not described here
[19] = biological target: Eukaryotic translation elongation factor 1 epsilon-1 (Homo sapiens) (UniProt O43324); further: assay method not described here
[20] = biological target: Serine/threonine-protein kinase A-Raf (Homo sapiens) (UniProt P10398); further: assay method not described here
[21] = biological target: Dual specificity mitogen-activated protein kinase kinase 1 (Homo sapiens) (UniProt Q02750); further: assay method not described here
Dual specificity mitogen-activated protein kinase kinase 1 (Homo sapiens), sequence (Q02750 whole entry): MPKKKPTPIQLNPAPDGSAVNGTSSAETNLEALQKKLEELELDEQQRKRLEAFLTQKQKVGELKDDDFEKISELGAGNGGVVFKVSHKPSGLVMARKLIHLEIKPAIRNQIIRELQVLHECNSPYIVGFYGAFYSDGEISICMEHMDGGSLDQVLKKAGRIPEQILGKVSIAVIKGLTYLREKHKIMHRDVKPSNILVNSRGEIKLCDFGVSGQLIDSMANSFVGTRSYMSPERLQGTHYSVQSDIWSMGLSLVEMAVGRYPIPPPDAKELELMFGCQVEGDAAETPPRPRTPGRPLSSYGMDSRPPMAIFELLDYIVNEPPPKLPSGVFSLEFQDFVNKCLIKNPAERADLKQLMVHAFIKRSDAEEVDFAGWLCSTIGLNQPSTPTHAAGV

[22] = biological target: U5 small nuclear ribonucleoprotein 200 kDa helicase (Homo sapiens) (UniProt O75643); further: assay method not described here
Homo sapiens [23] = organism: Homo sapiens; remark: listed apart in the source; further: assay method not described here
[24] = biological target: Signal recognition particle 14 kDa protein (Homo sapiens) (UniProt P37108); further: assay method not described here
Signal recognition particle 14 kDa protein (Homo sapiens), sequence (P37108 whole entry): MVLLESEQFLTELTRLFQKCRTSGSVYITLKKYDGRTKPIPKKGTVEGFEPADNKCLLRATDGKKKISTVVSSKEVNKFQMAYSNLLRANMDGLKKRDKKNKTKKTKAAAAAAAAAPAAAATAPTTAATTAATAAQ

[25] = biological target: Annexin A6 (Homo sapiens) (UniProt P08133); further: assay method not described here
Annexin A6 (Homo sapiens), sequence (P08133 whole entry): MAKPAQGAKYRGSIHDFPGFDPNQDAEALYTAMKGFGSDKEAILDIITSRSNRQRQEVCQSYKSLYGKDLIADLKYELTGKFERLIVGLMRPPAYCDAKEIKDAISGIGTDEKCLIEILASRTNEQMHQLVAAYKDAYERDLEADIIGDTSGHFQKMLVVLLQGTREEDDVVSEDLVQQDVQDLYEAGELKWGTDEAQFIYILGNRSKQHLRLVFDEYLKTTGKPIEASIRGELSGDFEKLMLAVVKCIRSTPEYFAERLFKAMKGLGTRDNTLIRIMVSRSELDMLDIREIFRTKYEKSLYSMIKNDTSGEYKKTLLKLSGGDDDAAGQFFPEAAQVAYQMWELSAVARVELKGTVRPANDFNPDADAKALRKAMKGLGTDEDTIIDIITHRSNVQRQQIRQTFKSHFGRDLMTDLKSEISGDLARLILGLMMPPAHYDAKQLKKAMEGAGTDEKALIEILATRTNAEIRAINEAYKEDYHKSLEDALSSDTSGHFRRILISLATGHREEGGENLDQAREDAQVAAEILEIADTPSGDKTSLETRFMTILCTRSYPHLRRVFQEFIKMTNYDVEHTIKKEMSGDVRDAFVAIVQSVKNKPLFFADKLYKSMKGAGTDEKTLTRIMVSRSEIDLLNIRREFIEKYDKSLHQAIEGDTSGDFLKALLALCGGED

[26] = biological target: Triosephosphate isomerase (Homo sapiens) (UniProt P60174); further: assay method not described here
Ephrin type-B receptor 6 = Ephrin type-B receptor 6 (Homo sapiens, UniProt O15197); assay: Inhibition of Nano Luc-fused full length C-terminal EPHB6 (unknown origin) expressed in HEK293T cells using NanoGlo as substrate incubated for 2 hrs in presence of tracer by NanoBRET assay; type: cell-based
[27] = biological target: Centromere/kinetochore protein zw10 homolog (Homo sapiens) (UniProt O43264); further: assay method not described here
[28] = biological target: Asparagine--tRNA ligase, cytoplasmic (Homo sapiens) (UniProt O43776); further: assay method not described here
Asparagine--tRNA ligase, cytoplasmic (Homo sapiens), sequence (O43776 whole entry): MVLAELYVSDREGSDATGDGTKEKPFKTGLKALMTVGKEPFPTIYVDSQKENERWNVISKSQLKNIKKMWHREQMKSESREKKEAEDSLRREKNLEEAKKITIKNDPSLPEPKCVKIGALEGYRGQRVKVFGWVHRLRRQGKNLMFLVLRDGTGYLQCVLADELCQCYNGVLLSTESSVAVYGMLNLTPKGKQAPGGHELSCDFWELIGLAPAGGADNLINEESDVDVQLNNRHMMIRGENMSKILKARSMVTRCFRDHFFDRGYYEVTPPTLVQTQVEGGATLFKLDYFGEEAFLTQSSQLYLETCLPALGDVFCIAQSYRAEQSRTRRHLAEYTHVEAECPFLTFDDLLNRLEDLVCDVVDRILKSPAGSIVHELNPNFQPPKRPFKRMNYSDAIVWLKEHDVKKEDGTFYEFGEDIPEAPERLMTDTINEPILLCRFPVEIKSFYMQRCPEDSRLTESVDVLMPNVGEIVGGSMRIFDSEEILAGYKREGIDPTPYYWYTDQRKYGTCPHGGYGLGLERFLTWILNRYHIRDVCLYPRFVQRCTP

[29] = biological target: Tubulin beta-4B chain (Homo sapiens) (UniProt P68371); further: assay method not described here
[30] = biological target: NADH-ubiquinone oxidoreductase 75 kDa subunit, mitochondrial (Homo sapiens) (UniProt P28331); further: assay method not described here
Malectin (Homo sapiens) = Malectin (Homo sapiens) (UniProt Q14165); further: assay method not described here
[31] = biological target: GTPase-activating protein and VPS9 domain-containing protein 1 (Homo sapiens) (UniProt Q14C86); further: assay method not described here
[32] = biological target: Vitamin K epoxide reductase complex subunit 1-like protein 1 (Homo sapiens) (UniProt Q8N0U8); further: assay method not described here
[33] = biological target: Gamma-tubulin complex component 3 (Homo sapiens) (UniProt Q96CW5); further: assay method not described here
Gamma-tubulin complex component 3 (Homo sapiens), sequence (Q96CW5 whole entry, one chain of several): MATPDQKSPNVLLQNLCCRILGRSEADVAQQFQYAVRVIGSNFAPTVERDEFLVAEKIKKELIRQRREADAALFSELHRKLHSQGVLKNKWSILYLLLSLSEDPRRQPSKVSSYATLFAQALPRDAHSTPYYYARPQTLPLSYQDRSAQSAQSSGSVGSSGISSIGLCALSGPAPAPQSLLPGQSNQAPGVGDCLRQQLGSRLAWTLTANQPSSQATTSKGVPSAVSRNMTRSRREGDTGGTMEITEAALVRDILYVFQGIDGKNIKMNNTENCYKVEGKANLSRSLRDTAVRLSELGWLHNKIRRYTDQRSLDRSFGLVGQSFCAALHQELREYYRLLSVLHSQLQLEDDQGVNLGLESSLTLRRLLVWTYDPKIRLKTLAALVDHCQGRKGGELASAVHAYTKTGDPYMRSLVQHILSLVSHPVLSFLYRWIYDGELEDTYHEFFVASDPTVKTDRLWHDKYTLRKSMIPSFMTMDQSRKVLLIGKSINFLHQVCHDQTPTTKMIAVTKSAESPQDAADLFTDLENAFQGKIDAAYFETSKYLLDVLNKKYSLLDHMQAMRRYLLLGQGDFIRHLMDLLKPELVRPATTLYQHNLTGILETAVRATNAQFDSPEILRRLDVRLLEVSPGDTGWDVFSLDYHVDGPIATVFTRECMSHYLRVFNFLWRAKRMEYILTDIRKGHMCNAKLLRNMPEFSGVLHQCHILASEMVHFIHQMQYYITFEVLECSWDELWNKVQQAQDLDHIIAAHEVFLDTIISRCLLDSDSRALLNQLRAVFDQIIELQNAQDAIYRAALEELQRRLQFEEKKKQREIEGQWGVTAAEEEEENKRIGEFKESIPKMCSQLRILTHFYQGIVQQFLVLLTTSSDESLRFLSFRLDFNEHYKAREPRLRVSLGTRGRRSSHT

[34] = biological target: Mitogen-activated protein kinase kinase kinase 4 (Homo sapiens) (UniProt Q9Y6R4); further: assay method not described here
[35] = biological target: Cytochrome b-c1 complex subunit 2, mitochondrial (Homo sapiens) (UniProt P22695); further: assay method not described here
Ephrin type-A receptor 5 = Ephrin type-A receptor 5 (Homo sapiens, UniProt P54756); assay: Inhibition of Nano Luc-fused full length C-terminal EPHA5 (unknown origin) expressed in HEK293T cells using NanoGlo as substrate incubated for 2 hrs in presence of tracer by NanoBRET assay; type: cell-based
[36] = biological target: CDK5 and ABL1 enzyme substrate 1 (Homo sapiens) (UniProt Q8TDN4); further: assay method not described here
[37] = biological target: Tyrosine-protein kinase BTK (Homo sapiens) (UniProt Q06187); further: assay method not described here
[38] = biological target: Small ribosomal subunit protein eS17 (Homo sapiens) (UniProt P08708); further: assay method not described here
[39] = biological target: Sterol O-acyltransferase 1 (Homo sapiens) (UniProt P35610); further: assay method not described here
Sterol O-acyltransferase 1 (Homo sapiens), sequence (P35610 whole entry): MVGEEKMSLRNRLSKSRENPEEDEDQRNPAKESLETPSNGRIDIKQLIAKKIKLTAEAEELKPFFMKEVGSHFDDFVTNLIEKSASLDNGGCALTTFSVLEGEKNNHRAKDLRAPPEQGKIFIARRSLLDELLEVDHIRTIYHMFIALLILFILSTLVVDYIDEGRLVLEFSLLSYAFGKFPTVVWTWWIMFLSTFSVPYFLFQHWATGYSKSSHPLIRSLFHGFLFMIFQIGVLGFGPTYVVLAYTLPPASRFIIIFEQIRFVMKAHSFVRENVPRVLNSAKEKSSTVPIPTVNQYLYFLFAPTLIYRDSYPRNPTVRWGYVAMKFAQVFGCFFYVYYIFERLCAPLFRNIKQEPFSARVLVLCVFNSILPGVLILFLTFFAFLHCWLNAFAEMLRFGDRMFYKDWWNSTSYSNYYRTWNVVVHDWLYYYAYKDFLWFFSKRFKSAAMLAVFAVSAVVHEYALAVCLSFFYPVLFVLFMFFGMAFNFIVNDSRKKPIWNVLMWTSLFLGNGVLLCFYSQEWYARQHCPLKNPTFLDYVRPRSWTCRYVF

[40] = biological target: Protein transport protein Sec16A (Homo sapiens) (UniProt O15027); further: assay method not described here
[41] = biological target: G2/mitotic-specific cyclin-B1 (Homo sapiens) (UniProt P14635); further: assay method not described here

In the case of `Cc1ccc(C(=O)Nc2cccc(C(F)(F)F)c2)cc1Nc1nc(-c2cccnc2)nc2c1cnn2C`, the ED50 (Homo sapiens [1]) is reported as 33.9 µM, the ED50 [2] is reported as 16.5 µM and the ED50 [3] is reported as 0.163 µM. The ED50 [4] was 0.0536 µM, the ED50 [5] was 0.00467 µM and the ED50 [6] was 3.47 µM. It also gave an ED50 [7] of 0.877 µM, an ED50 [8] of 4.7 µM and an ED50 [9] of 0.00101 µM. For the same compound, the ED50 [10] was 15.5 µM, the ED50 [11] was 3.55 µM and the ED50 [12] was 0.121 µM. For the same compound, the ED50 [13] was 0.00467 µM, the ED50 [14] was 2.58 µM and the ED50 [15] was 2.69 µM. It also gave an ED50 [16] of 3.02 µM, an ED50 [17] of 0.0195 µM and an ED50 [18] of 16.4 µM. It also gave an ED50 [19] of 0.168 µM, an ED50 [20] of 13.1 µM and an ED50 [21] of 0.00367 µM. The ED50 [22] was 6.15 µM, the ED50 (Homo sapiens [23]) was 6.33 µM and the ED50 [24] was 20.3 µM. The ED50 [25] was 9 µM, the ED50 [26] was 0.183 µM and the IC50 (Ephrin type-B receptor 6) was 4.48 µM. The ED50 [27] was 2.9 µM, the ED50 [28] was 0.0284 µM and the ED50 [29] was 2.68 µM. The ED50 [30] was 0.765 µM, the ED50 (Malectin (Homo sapiens)) was 95.1 µM and the ED50 [31] was 7.36 µM. It also gave an ED50 [32] of 5.89 µM, an ED50 [33] of 10.2 µM and an ED50 [34] of 7.94 µM. For the same compound, the ED50 [35] was 0.00584 µM, the IC50 (Ephrin type-A receptor 5) was 0.0028 µM and the ED50 [36] was 0.993 µM. It also gave an ED50 [37] of 5.02 µM, an ED50 [38] of 21.8 µM and an ED50 [39] of 224 µM. The ED50 [40] was 0.00675 µM and the ED50 [41] was 0.205 µM.

In the case of `Cc1ccc(C(=O)Nc2cccc(C(F)(F)F)c2)cc1Nc1nc(-c2cccnc2)nc2nn(C)cc12`, the ED50 (Homo sapiens [1]) is reported as 0.0569 µM, the ED50 [2] is reported as 0.0507 µM and the ED50 [3] is reported as 1.37 µM. It also gave an ED50 [4] of 0.0335 µM, an ED50 [5] of 0.0077 µM and an ED50 [6] of 0.0559 µM. The ED50 [7] was 0.0595 µM, the ED50 [8] was 0.0354 µM and the ED50 [9] was 0.193 µM. The ED50 [10] was 0.287 µM, the ED50 [11] was 0.00871 µM and the ED50 [12] was 0.125 µM. It also gave an ED50 [13] of 109 µM, an ED50 [14] of 0.0551 µM and an ED50 [15] of 0.0817 µM. It also gave an ED50 [16] of 0.0175 µM, an ED50 [17] of 13200 µM and an ED50 [18] of 0.042 µM. It also gave an ED50 [19] of 0.502 µM, an ED50 [20] of 2.15 µM and an ED50 [21] of 0.0574 µM. It also gave an ED50 [22] of 0.539 µM, an ED50 (Homo sapiens [23]) of 6.81 µM and an ED50 [24] of 3.59 µM. The ED50 [25] was 0.0326 µM, the ED50 [26] was 0.0625 µM and the IC50 (Ephrin type-B receptor 6) was over 50 µM. It also gave an ED50 [27] of 0.0544 µM, an ED50 [28] of 5.57 µM and an ED50 [29] of 0.0012 µM. The ED50 [30] was 0.959 µM, the ED50 (Malectin (Homo sapiens)) was 7.05 µM and the ED50 [31] was 9.47 µM. It also gave an ED50 [32] of 2.51 µM, an ED50 [33] of 0.00173 µM and an ED50 [34] of 0.05 µM. For the same compound, the ED50 [35] was 0.00616 µM, the IC50 (Ephrin type-A receptor 5) was 0.208 µM and the ED50 [36] was 0.175 µM. The ED50 [37] was 5.75 µM, the ED50 [38] was 1.76 µM and the ED50 [39] was 7.06 µM. For the same compound, the ED50 [40] was 0.0052 µM and the ED50 [41] was 5.61 µM.
